In paper PMC10011747, “Targeting androgen receptor and the variants by an orally bioavailable Proteolysis Targeting Chimeras compound in castration resistant prostate cancer” (eBioMedicine, 2023):

Assays:
Assay type in all cases: cell-based, human
[1] = system: full-length AR; assay: AR degradation by western blot in prostate cancer cell lines; details: 24 h treatment; LNCaP, CWR22Rv1, VCaP
Procedure: To obtain total lysates, cells were lysed in RIPA buffer (50 mM Tris–HCl pH 8.0, 150 mM NaCl, 1% NP-40, 0.5% Na-deoxycholate, 0.5% SDS plus protease inhibitors). The lysates were resolved by SDS-polyacrylamide gel electrophoresis, and the protein expression was analyzed by western blotting using primary antibodies against AR (Millipore Cat# 06-680, RRID:AB_310214), AR-V7 (RevMAb Biosciences Cat# 31-1109-00, RRID:AB_2716436), GAPDH (Cell Signaling Technology Cat# 2118, RRID:AB_561053) and Actin (Sigma–Aldrich Cat# A5441, RRID:AB_476744). pLenti4/TO/Flag-AR or pLenti4/TO/Flag-TC-AR plasmid was co-transfected with HA-ubiquitin plasmid into 293T cells. 24 h after transfection, the cells were treated with 10 μM of the PROTAC compounds for 16 h, followed by 4-h treatment of 5 μM MG132. The cells were lysed with lysis buffer (50 mM Tris–HCl pH7.5, 150 mM NaCl, 0. 5% Triton X-100, 10% glycerol, 1 mM EDTA plus protease inhibitors) containing 1 ng/mL of N-ethylmaleimide, followed by immunoprecipitation with anti-Flag M2 (Sigma–Aldrich Cat# F3165, RRID:AB_259529) antibody. The ubiquitinated AR was then detected by western blotting using anti-HA (Sigma–Aldrich Cat# H3663, RRID:AB_262051) antibody.
Fig. 1 PROTAC-based AR degraders ITRI-90, ITRI-125 and ITRI-126 reduce AR and AR-V7 proteins in prostate cancer cell lines. (a) Chemical structure of the PROTAC AR degraders. (b) Representative western blots of AR protein levels in LNCaP, CWR22Rv1 and VCaP cells treated with the PROTAC degraders for 24 h. AR was detected by N-terminal antibody which also detects C-terminal truncated AR-V(ΔLBD) in CWR22Rv1 cells. AR-V7 specific antibody was used for AR-V7 detection. 4%–12% gradient gel was used to separate different species of AR-V(ΔLBD) near 75 kDa in CWR22Rv1 cell lysates. DC50 indicating the concentration required to achieve 50% degradation, was calculated based on normalized full-length AR and AR-V7 band intensity. Dmax is the maximum degradation achieved at 20 μM compound treatment. TEXT PRINTED IN THE PICTURE: (a) ITRI-90: AR DC50 (μM) LNCaP: 2.12 ± 0.93; AR DC50 (μM) CWR22Rv1: 5.73 ± 2.28; AR DC50 (μM) VCaP: 8.67 ± 4.87; AR-V7 DC50 (μM) CWR22Rv1: 4.72 ± 2.52; AR-V7 DC50 (μM) VCaP: 0.29 ± 0.15; AR Dmax (%) LNCaP: 88; AR Dmax (%) CWR22Rv1: 98; AR Dmax (%) VCaP: 90; AR-V7 Dmax (%) CWR22Rv1: 100; AR-V7 Dmax (%) VCaP: 63 | (a) ITRI-125: AR DC50 (μM) LNCaP: 6.10 ± 4.43; AR DC50 (μM) CWR22Rv1: 6.64 ± 1.87; AR DC50 (μM) VCaP: 9.05 ± 3.75; AR-V7 DC50 (μM) CWR22Rv1: 1.89 ± 1.06; AR-V7 DC50 (μM) VCaP: 0.52 ± 0.37; AR Dmax (%) LNCaP: 71; AR Dmax (%) CWR22Rv1: 96; AR Dmax (%) VCaP: 85; AR-V7 Dmax (%) CWR22Rv1: 99; AR-V7 Dmax (%) VCaP: 67 | (a) ITRI-126: AR DC50 (μM) LNCaP: 3.41 ± 3.13; AR DC50 (μM) CWR22Rv1: 0.11 ± 0.02; AR DC50 (μM) VCaP: 0.851 ± 0.43; AR-V7 DC50 (μM) CWR22Rv1: 0.011 ± 0.003; AR-V7 DC50 (μM) VCaP: 0.43 ± 0.19; AR Dmax (%) LNCaP: 99; AR Dmax (%) CWR22Rv1: 74; AR Dmax (%) VCaP: 94; AR-V7 Dmax (%) CWR22Rv1: 91; AR-V7 Dmax (%) VCaP: 82

[2] = system: VCaP cells; assay: MTT proliferation, VCaP with enzalutamide; details: 20 μM enzalutamide, with or without 10 μM PROTAC, up to 8 days
Procedure: Cells were seeded in triplicate in 96-well plates 1 day prior to drug treatment for all assays. For viability test and IC50 assessment, the alamarBlue™ Cell Viability Reagent (Thermo Fisher Scientific) was added to cells 7 days after PROTAC treatment, followed by fluorescence detection as the manufacturer instructed. The IC50 was calculated by dose-inhibition regression. For proliferation monitoring, 2, 4, 6 and 8 days after PROTAC treatment (day 0), viable cells were detected by MTT Cell Proliferation Kit I (Sigma–Aldrich) according to the manufacturer's instructions. Cellular caspase activity was measured by Caspase-Glo 3/7 Assay System (Promega) 1 or 2 days after the drug treatment.
Fig. 6 AR degraders effectively diminish enzalutamide-induced AR-V expression and inhibit enzalutamide-resistant cell growth. (a) VCaP cells were treated with 20 μM enzalutamide (Enz) for 2 days, followed by one-day treatment of mock or 10 μM PROTAC. Full-length AR and AR-V(ΔLBD) was detected by N-terminal AR antibody (top) or AR-V7 specific antibody (middle). […] Cell proliferation was detected by MTT every 2 days after PROTAC treatment, up to 8 days. […] (c) AR protein levels in C4-2B and C4-2B/Enz^R cells treated with mock or 10 μM PROTAC compounds for 1 day were detected by anti-N-terminal-AR and anti-AR-V7 antibodies. […] Cell growth was monitored by MTT every 2 days up to 8 days. […]

[3] = system: AR and AR-V7 target gene expression; assay: qRT-PCR of AR and AR-V7 target genes; details: CWR22Rv1 cells, 24 h, 5 μM
Procedure: TRIzol™ Reagent (Thermo Fisher Scientific) was used to isolate total RNA, and iScript™ cDNA Synthesis Kit (Bio-Rad, Hercules, CA, USA) was used for cDNA synthesis. The cDNA expression level of each gene was then quantified by the Bio-Rad CFX Real-Time PCR detection system using iTaq Universal SYBR Green Supermix (Bio-Rad) and primers listed in Table S1. All samples were tested in triplicate, and the expression levels were normalized against RPL13A and GAPDH cDNA levels using Bio-Rad CFX software.

Cc1ncsc1-c1ccc(CNC(=O)[C@@H]2C[C@H](O)CN2C(=O)[C@@H](NC(=O)COCCCCOc2ccc(C3CCN(C4=Nn5c(nnc5C(F)(F)F)CC4)CC3)cc2)C(C)(C)C)cc1 [ITRI-90 inactive, (2S,4S)-1-((S)-3,3-dimethyl-2-(2-(4-(4-(1-(3-(trifluoromethyl)-7,8-dihydro-[1,2,4]triazolo[4,3-b]pyridazin-6-yl)piperidin-4-yl)phenoxy)butoxy)acetamido)butanoyl)-4-hydroxy-N-(4-(4-methylthiazol-5-yl)benzyl)pyrrolidine-2-carboxamide]
AR protein expression (negative control degraders) [1]: did not inhibit the AR protein expression

CN1C(=O)CCC(N2Cc3c(NC(=O)COCCCCOc4ccc(C5CCN(C6=Nn7c(nnc7C(F)(F)F)CC6)CC5)cc4)cccc3C2=O)C1=O (stereo not shown) [ITRI-126 inactive, N-(2-(1-methyl-2,6-dioxopiperidin-3-yl)-1-oxoisoindolin-4-yl)-2-(4-(4-(1-(3-(trifluoromethyl)-7,8-dihydro-[1,2,4]triazolo[4,3-b]pyridazin-6-yl)piperidin-4-yl)phenoxy)butoxy)acetamide]
AR protein expression (negative control degraders) [1]: did not inhibit the AR protein expression

CNC(=O)c1ccc(N2C(=S)N(c3ccc(C#N)c(C(F)(F)F)c3)C(=O)C2(C)C)cc1F [enzalutamide]
VCaP proliferation (MTT) [2]: modestly inhibits VCaP proliferation
expression of AR-V7 target genes [3]: specifically inhibited by the degraders but not enzalutamide
